Experimental data taken from article PMC10515640, “Structure-Based Optimization of Covalent, Small-Molecule Stabilizers of the 14-3-3σ/ERα Protein–Protein Interaction from Nonselective Fragments” (Journal of the American Chemical Society, 2023).

Columns and labels:
14-3-3σ/ERα [1] = target: T1, 14-3-3σ/ERα (Homo sapiens, UniProt P03372+P31947); assay: Fluorescence anisotropy compound titration, FAM-labeled ERα peptide; assay type: binding; details: 10 nM ERα-FAM labeled peptide, 1 µM 14-3-3σ, overnight incubation (24 h); read-out: EC50 value ERα (FA compound titration)
T1 construct: The 14-3-3 σ isoform (full-length for mass spectrometry and fluorescence anisotropy assays, ΔC for crystallography); made in house; host or cells: E. coli Rosetta 2(DE3)pLysS, pPROEX HTb vector
Text: (§1) Two orthogonal assays were developed for screening. For the primary assay, mass spectrometry (MS) was used to monitor the formation of the covalent bond between the compound and the native cysteine (Cys38 on 14-3-3σ) (Figure 1D). The assay was first performed in the absence of peptide to determine binding to 14-3-3σ only (apo screening, D1) and then in the presence of both 14-3-3σ and the peptide as an indication of how much the peptide stabilized compound binding (D2). […] As a secondary assay, fluorescence anisotropy (FA) was used. In this case, compounds were titrated to mixtures of 14-3-3σ and FAM-labeled peptides. […] Thus, the two assays are highly complementary; the MS assay reports on compound binding and the FA assay reports on peptide binding. […]
(§2) diluted in buffer (10 mM HEPES, pH 7.5, 150 mM NaCl, 0.1% Tween20, 1 mg/mL Bovine Serum Albumin (BSA; Sigma-Aldrich). Final DMSO in the assay was always 1%. Dilution series of 14-3-3 proteins or compounds were made in […]
(§3) Compound titrations were made by titrating the compound in a 2-fold dilution series (starting at 500 or 1000 µM) to a mix of fluorescein-labeled peptide (10 nM) and 14-3-3σ (concentration at approximately the EC20 to EC30 value of the protein-peptide complex; 1 µM for ERα and 5 µM for C-RAF). Using the ~EC25 value makes the assay sensitive for measuring an increase in PPI formation. Fluorescence anisotropy measurements were performed directly and after overnight incubation at room temperature. […]
(§4) Wells containing only FAM-peptide were used to set as G-factor at 35 mP. Data reported are at endpoint. EC50 and apparent Kd values were obtained from fitting the data with a four-parameter logistic model (4PL) in GraphPad Prism 7 for Windows. Data was obtained and averaged based on either three (compound titrations) or two (protein titrations) independent experiments.

14-3-3σ/C-RAF [2] = target: T2, 14-3-3σ/C-RAF (Homo sapiens, UniProt P31947); assay: Mass spectrometry dose response, compound binding to 14-3-3σ in the presence of C-RAF phosphopeptide; details: 100 nM compound, 100 nM 14-3-3σ, C-RAF peptide 18 µM
T2 construct: The 14-3-3 σ isoform (full-length for mass spectrometry and fluorescence anisotropy assays, ΔC for crystallography); made in house; host or cells: E. coli Rosetta 2(DE3)pLysS, pPROEX HTb vector
T2 sequence (P31947 1-248): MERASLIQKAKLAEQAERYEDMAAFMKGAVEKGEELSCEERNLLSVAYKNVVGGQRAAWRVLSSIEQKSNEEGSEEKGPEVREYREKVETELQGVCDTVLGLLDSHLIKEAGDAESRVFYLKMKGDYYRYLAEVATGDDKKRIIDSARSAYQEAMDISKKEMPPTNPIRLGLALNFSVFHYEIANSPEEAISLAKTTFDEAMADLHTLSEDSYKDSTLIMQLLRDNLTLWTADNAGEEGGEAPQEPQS
Text: as §1
(§5) Mass spectrometry dose response assays were performed on a Waters Acquity UPLC/ Xevo G2-XS Q-Tof mass spectrometer. A Waters UPLC Protein BEH-C4 Column (300 Å, 1.7 μm, 2.1 mm x 50 mm) was used to desalt the samples prior to application on the mass spectrometer. For 19-point MS dose responses, 50 mM compound stocks in DMSO were serially diluted in 3-fold increment in a master plate, then 1000 nl of the compounds were transferred in the assay plates. Master mixes containing 100 nM full-length wild type 14-3-3σ in the absence or presence of […]
(§6) Assay buffer was TRIS (10 mM, pH 8.0) and final volume per well was 50 μl, with final top concentration of compounds dose response series at 1 mM. The reaction mixtures were incubated for 1h at rt before subjected to MS. Four measurements (1h, 8h, 16h, 24h) were performed for time-course experiments. The injection volume for each sample was 6 μl. 24 μl of sample were needed for the time-course experiments, so the total volume in the assay plate was adjusted to 50 μl, to account for the dead volume in the injections. Data collection and automated processing followed a custom workflow, as previously described.1 z Plots were created using GraphPad Prism with the log(agonist) vs. response (variable slope, four parameters) fitting model. […]

14-3-3σ/C-RAF [3] = target: T2, 14-3-3σ/C-RAF; assay: Fluorescence anisotropy compound titration, FAM-labeled C-RAF peptide; assay type: binding; details: 10 nM C-RAF-FAM labeled peptide, 5 µM 14-3-3σ, overnight incubation; read-out: EC50 value C-RAF (FA compound titration)
Text: as §1, §2, §3, §4

14-3-3σ = target: T3, 14-3-3σ (Homo sapiens, UniProt P31947); assay: Mass spectrometry dose response, compound binding to 14-3-3σ in the absence of peptide (apo); details: 100 nM compound, 100 nM 14-3-3σ
T3 construct: The 14-3-3 σ isoform (full-length for mass spectrometry and fluorescence anisotropy assays, ΔC for crystallography); made in house; host or cells: E. coli Rosetta 2(DE3)pLysS, pPROEX HTb vector
T3 sequence (P31947 1-248): T2 sequence (P31947 1-248)
Text: as §1, §5, §6

14-3-3σ/ERα [4] = target: T1, 14-3-3σ/ERα; assay: Mass spectrometry dose response, compound binding to 14-3-3σ in the presence of ERα phosphopeptide; details: 100 nM compound, 100 nM 14-3-3σ, ERα-peptide 2 µM
Text: as §1, §5, §6

Structure (SMILES)	EC50 (14-3-3σ/ERα [1])	Percentage (%) bound of compound to 14-3-3σ, CRAF 1h (14-3-3σ/C-RAF [2])	Percentage (%) bound of compound to 14-3-3σ, CRAF 8h (14-3-3σ/C-RAF [2])	Percentage (%) bound of compound to 14-3-3σ, CRAF 24h (14-3-3σ/C-RAF [2]; 24h)	Percentage (%) bound of compound to 14-3-3σ, CRAF 24h (14-3-3σ/C-RAF [2]; head prints 24h)	EC50 (14-3-3σ/C-RAF [3])	Percentage (%) bound of compound to 14-3-3σ, APO 1h (14-3-3σ)	Percentage (%) bound of compound to 14-3-3σ, APO 8h (14-3-3σ)	Percentage (%) bound of compound to 14-3-3σ, APO 16h (14-3-3σ)	Percentage (%) bound of compound to 14-3-3σ, APO 24h (14-3-3σ)	Percentage (%) bound of compound to 14-3-3σ, ERα 1h (14-3-3σ/ERα [4])	Percentage (%) bound of compound to 14-3-3σ, ERα 8h (14-3-3σ/ERα [4])	Percentage (%) bound of compound to 14-3-3σ, ERα 16h (14-3-3σ/ERα [4])	Percentage (%) bound of compound to 14-3-3σ, ERα 24h (14-3-3σ/ERα [4])
CC(C)(Oc1ccc(Cl)cc1)C(=O)N1CCC(NC(=O)CCl)CC1 [compound 26]	> 150 µM	0.0%	1.0%	4.3%	2.6%	> 150 µM	0%	0%	0%	0%	0%	0%	0%	1.8%
CC(C)(Oc1ccc(Cl)cc1)C(=O)N1CCC(CNC(=O)CCl)CC1 [compound 27]	19 ± 1 µM	4.1%	10.6%	28.3%	19.2%	16 ± 4 µM	0.0%	1.0%	1.4%	2.0%	1.4%	6.4%	14.6%	30.6%
CC(C)(Oc1ccc(Cl)cc1)C(=O)N1CCC(CCNC(=O)CCl)CC1 [compound 28]	24 ± 16 µM	3.1%	7.5%	40.1%	22.1%	40 ± 1 µM	1.0%	1.0%	1.9%	1.9%	0.3%	1.5%	4.2%	10.9%
O=C(CCl)NCCC1CCN(C(=O)C2(Nc3ccc(Cl)cc3)CCOCC2)CC1 [compound 148]	92 ± 8 µM	0%	0%	0%	0%	–	0%	0%	0%	0%	0%	0%	1.0%	1.1%
O=C(CCl)NCCC1CCN(C(=O)C2(Nc3ccc(Cl)cc3)CCNCC2)CC1 [compound 151]	16 ± 2 µM	0%	1.0%	3.7%	1.5%	–	0%	0%	1.8%	2.2%	6.5%	20.6%	48.0%	75.0%
O=C(CCl)NCCCC1CCN(C(=O)C2(Nc3ccc(Cl)cc3)CCNCC2)CC1 [compound 153]	16 ± 1 µM	0%	0%	0%	0%	–	4.7%	7.4%	7.8%	8.0%	23.1%	44.7%	76.1%	88.8%
O=C(CCl)CCC1CCN(C(=O)C2(Nc3ccc(Cl)cc3)CCOCC2)CC1 [compound 156]	5 ± 0.3 µM	54.7%	62.3%	99.4%	92.0%	–	18.0%	35.7%	70.7%	95.1%	81.1%	97.0%	100%	100%
